Assay results taken from PubChem BioAssay AID2060510 (Molecular Pharmacology Branch, DTP, NCI, 2025).

Tested on: 439559-082-T-J2-PDC spheroids viability
Experiment: Anticancer human tumor 439559-082-T-J2-PDC patient-derived colon adenocarcinoma cell line growth inhibition [GQUAD]
Conditions: for IC50: curve of first compound; for viability, T/C: stronger effect = lower value
Summary of the method: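 Viability of tumor cells grown as complex spheroids with endothelial and stromal cells, exposed to drug combinations. Top concentration at or near clinical Cmax (else 10 microM), diluted in half-log increments.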

[1] = second compound 0.0316 µM, first compound 0.0316 µM
[2] = second compound 0.0316 µM, first compound 0.1 µM
[3] = second compound 0.0316 µM, first compound 0.316 µM
[4] = second compound 0.0316 µM, first compound 1 µM
[5] = second compound 0.0316 µM, first compound 3.16 µM
[6] = second compound 0.0316 µM, first compound 10 µM
[7] = second compound 0.1 µM, first compound 0.0316 µM
[8] = second compound 0.1 µM, first compound 0.1 µM
[9] = second compound 0.1 µM, first compound 0.316 µM
[10] = second compound 0.1 µM, first compound 1 µM
[11] = second compound 0.1 µM, first compound 3.16 µM
[12] = second compound 0.1 µM, first compound 10 µM
[13] = second compound 0.316 µM, first compound 0.0316 µM
[14] = second compound 0.316 µM, first compound 0.1 µM
[15] = second compound 0.316 µM, first compound 0.316 µM
[16] = second compound 0.316 µM, first compound 1 µM
[17] = second compound 0.316 µM, first compound 3.16 µM
[18] = second compound 0.316 µM, first compound 10 µM
[19] = second compound 1 µM, first compound 0.0316 µM
[20] = second compound 1 µM, first compound 0.1 µM
[21] = second compound 1 µM, first compound 0.316 µM
[22] = second compound 1 µM, first compound 1 µM
[23] = second compound 1 µM, first compound 3.16 µM
[24] = second compound 1 µM, first compound 10 µM
[25] = second compound 3.16 µM, first compound 0.0316 µM
[26] = second compound 3.16 µM, first compound 0.1 µM
[27] = second compound 3.16 µM, first compound 0.316 µM
[28] = second compound 3.16 µM, first compound 1 µM
[29] = second compound 3.16 µM, first compound 3.16 µM
[30] = second compound 3.16 µM, first compound 10 µM
[31] = second compound 10 µM, first compound 0.0316 µM
[32] = second compound 10 µM, first compound 0.1 µM
[33] = second compound 10 µM, first compound 0.316 µM
[34] = second compound 10 µM, first compound 1 µM
[35] = second compound 10 µM, first compound 3.16 µM
[36] = second compound 10 µM, first compound 10 µM
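Also: spheroids exposed to the agents for 7 days before readout.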
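For viability, T/C in this document: percent of luminescence signal in DMSO vehicle wells taken as 100% viability.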

`CCCS(=O)(=O)Nc1ccc(F)c(C(=O)c2c[nH]c3ncc(-c4ccc(Cl)cc4)cc23)c1F` + CN(C)c1ccc(Nc2c3ccc(NC(=O)CCN4CCCC4)cc3nc3cc(NC(=O)CCN4CCCC4)ccc23)cc1 gave an IC50 (second compound 0.0316 µM) of over 10 µM, an IC50 (second compound 0.1 µM) of over 10 µM and an IC50 (second compound 0.316 µM) of 9.61 µM. The IC50 (second compound 1 µM) was over 10 µM, the IC50 (second compound 3.16 µM) was 9.15 µM and the IC50 (second compound 10 µM) was over 10 µM. It also gave a viability, T/C [1] of 118%, a viability, T/C [2] of 93.8% and a viability, T/C [3] of 100%. The viability, T/C [4] was 92.4%, the viability, T/C [5] was 116% and the viability, T/C [6] was 59.5%. The viability, T/C [7] was 90.5%, the viability, T/C [8] was 101% and the viability, T/C [9] was 96.7%. It also gave a viability, T/C [10] of 87.9%, a viability, T/C [11] of 103% and a viability, T/C [12] of 50.1%. For the same compound, the viability, T/C [13] was 98.4%, the viability, T/C [14] was 102% and the viability, T/C [15] was 94.1%. The viability, T/C [16] was 102%, the viability, T/C [17] was 113% and the viability, T/C [18] was 48.1%. The viability, T/C [19] was 91.9%, the viability, T/C [20] was 108% and the viability, T/C [21] was 103%. The viability, T/C [22] was 108%, the viability, T/C [23] was 107% and the viability, T/C [24] was 54.2%. For the same compound, the viability, T/C [25] was 96%, the viability, T/C [26] was 101% and the viability, T/C [27] was 108%. It also gave a viability, T/C [28] of 101%, a viability, T/C [29] of 112% and a viability, T/C [30] of 45.5%. The viability, T/C [31] was 90.9%, the viability, T/C [32] was 103% and the viability, T/C [33] was 99.8%. The viability, T/C [34] was 105%, the viability, T/C [35] was 108% and the viability, T/C [36] was 50.5%.

Compound `Nc1ccn(C2OC(CO)C(O)C2(F)F)c(=O)n1` (stereo unspecified) + CN(C)c1ccc(Nc2c3ccc(NC(=O)CCN4CCCC4)cc3nc3cc(NC(=O)CCN4CCCC4)ccc23)cc1 has an IC50 (second compound 0.0316 µM) of 0.261 µM, an IC50 (second compound 0.1 µM) of 0.263 µM and an IC50 (second compound 0.316 µM) of 0.232 µM. For the same compound, the IC50 (second compound 1 µM) was 0.237 µM, the IC50 (second compound 3.16 µM) was 0.209 µM and the IC50 (second compound 10 µM) was 0.17 µM. It also gave a viability, T/C [1] of 78.2%, a viability, T/C [2] of 65.2% and a viability, T/C [3] of 46.7%. It also gave a viability, T/C [4] of 32.3%, a viability, T/C [5] of 25.2% and a viability, T/C [6] of 20.5%. It also gave a viability, T/C [7] of 85.3%, a viability, T/C [8] of 70.4% and a viability, T/C [9] of 42.6%. It also gave a viability, T/C [10] of 36.3%, a viability, T/C [11] of 26.2% and a viability, T/C [12] of 23%. The viability, T/C [13] was 84.8%, the viability, T/C [14] was 68.6% and the viability, T/C [15] was 42.5%. It also gave a viability, T/C [16] of 29.2%, a viability, T/C [17] of 26.8% and a viability, T/C [18] of 20.8%. The viability, T/C [19] was 87%, the viability, T/C [20] was 65.7% and the viability, T/C [21] was 45.8%. The viability, T/C [22] was 28.2%, the viability, T/C [23] was 23.1% and the viability, T/C [24] was 19.5%. The viability, T/C [25] was 86.5%, the viability, T/C [26] was 67.9% and the viability, T/C [27] was 38.7%. It also gave a viability, T/C [28] of 28.9%, a viability, T/C [29] of 24.4% and a viability, T/C [30] of 19.7%. For the same compound, the viability, T/C [31] was 76.9%, the viability, T/C [32] was 59.9% and the viability, T/C [33] was 39.3%. For the same compound, the viability, T/C [34] was 18.5%, the viability, T/C [35] was 23.2% and the viability, T/C [36] was 18.7%.

In the case of `O=c1[nH]cc(F)c(=O)[nH]1` + CN(C)c1ccc(Nc2c3ccc(NC(=O)CCN4CCCC4)cc3nc3cc(NC(=O)CCN4CCCC4)ccc23)cc1, the IC50 (second compound 0.0316 µM) is reported as over 10 µM, the IC50 (second compound 0.1 µM) is reported as over 10 µM and the IC50 (second compound 0.316 µM) is reported as over 10 µM. For the same compound, the IC50 (second compound 1 µM) was over 10 µM, the IC50 (second compound 3.16 µM) was over 10 µM and the IC50 (second compound 10 µM) was over 10 µM. The viability, T/C [1] was 101%, the viability, T/C [2] was 103% and the viability, T/C [3] was 86.6%. For the same compound, the viability, T/C [4] was 81.2%, the viability, T/C [5] was 75.7% and the viability, T/C [6] was 76%. The viability, T/C [7] was 115%, the viability, T/C [8] was 106% and the viability, T/C [9] was 89%. It also gave a viability, T/C [10] of 84.1%, a viability, T/C [11] of 77.2% and a viability, T/C [12] of 69.1%. For the same compound, the viability, T/C [13] was 98.2%, the viability, T/C [14] was 105% and the viability, T/C [15] was 85.9%. It also gave a viability, T/C [16] of 80.4%, a viability, T/C [17] of 75% and a viability, T/C [18] of 75.2%. It also gave a viability, T/C [19] of 97.2%, a viability, T/C [20] of 104% and a viability, T/C [21] of 89%. It also gave a viability, T/C [22] of 81.3%, a viability, T/C [23] of 74.6% and a viability, T/C [24] of 81.8%. For the same compound, the viability, T/C [25] was 88.8%, the viability, T/C [26] was 102% and the viability, T/C [27] was 85.5%. For the same compound, the viability, T/C [28] was 73.9%, the viability, T/C [29] was 73.3% and the viability, T/C [30] was 72.1%. The viability, T/C [31] was 96.4%, the viability, T/C [32] was 93.1% and the viability, T/C [33] was 81.5%. It also gave a viability, T/C [34] of 74.6%, a viability, T/C [35] of 70.2% and a viability, T/C [36] of 73.5%.
